Reference: ChEMBL document CHEMBL1125573 (J Med Chem, 1992)

How the values were obtained:
[1] = target: Serotonin 2 (5-HT2) receptor (Rattus norvegicus, UniProt P30994+P08909+P14842); experiment: The compound was tested in vitro for binding affinity towards 5-hydroxytryptamine 2 receptor by displacing [125]I-LSD radioligand; type: protein assay
[2] = target: T1, D(2) dopamine receptor (Rattus norvegicus, UniProt P61169); experiment: Binding affinity towards Dopamine receptor D2 by displacing [3H]spiperone
[3] = target: T1, D(2) dopamine receptor; experiment: Displacement of [3H]spiperone from dopamine receptor D2
[4] = target: Dopamine D2 receptor/Serotonin 2 (5-HT2) receptor (Rattus norvegicus) (UniProt P61169+P30994+P08909+P14842); experiment: Relative binding affinity for dopamine D2 and 5-HT2 receptors; type: protein assay
Sequence of Dopamine D2 receptor/Serotonin 2 (5-HT2) receptor (Rattus norvegicus) (P08909 whole entry, looked up): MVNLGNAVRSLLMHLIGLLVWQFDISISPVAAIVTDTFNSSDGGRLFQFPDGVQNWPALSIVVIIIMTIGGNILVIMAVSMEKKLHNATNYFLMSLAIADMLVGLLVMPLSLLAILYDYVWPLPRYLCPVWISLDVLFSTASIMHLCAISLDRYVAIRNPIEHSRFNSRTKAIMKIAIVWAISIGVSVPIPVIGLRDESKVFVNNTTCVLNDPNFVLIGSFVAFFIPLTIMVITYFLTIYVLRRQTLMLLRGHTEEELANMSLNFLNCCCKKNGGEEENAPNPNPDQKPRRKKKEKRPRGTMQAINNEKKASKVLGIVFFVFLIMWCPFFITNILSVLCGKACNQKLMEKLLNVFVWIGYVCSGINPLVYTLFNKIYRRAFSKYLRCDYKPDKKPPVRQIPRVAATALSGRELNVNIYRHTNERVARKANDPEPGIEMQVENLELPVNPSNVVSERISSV
Sequence of Dopamine D2 receptor/Serotonin 2 (5-HT2) receptor (Rattus norvegicus) (P14842 whole entry, looked up): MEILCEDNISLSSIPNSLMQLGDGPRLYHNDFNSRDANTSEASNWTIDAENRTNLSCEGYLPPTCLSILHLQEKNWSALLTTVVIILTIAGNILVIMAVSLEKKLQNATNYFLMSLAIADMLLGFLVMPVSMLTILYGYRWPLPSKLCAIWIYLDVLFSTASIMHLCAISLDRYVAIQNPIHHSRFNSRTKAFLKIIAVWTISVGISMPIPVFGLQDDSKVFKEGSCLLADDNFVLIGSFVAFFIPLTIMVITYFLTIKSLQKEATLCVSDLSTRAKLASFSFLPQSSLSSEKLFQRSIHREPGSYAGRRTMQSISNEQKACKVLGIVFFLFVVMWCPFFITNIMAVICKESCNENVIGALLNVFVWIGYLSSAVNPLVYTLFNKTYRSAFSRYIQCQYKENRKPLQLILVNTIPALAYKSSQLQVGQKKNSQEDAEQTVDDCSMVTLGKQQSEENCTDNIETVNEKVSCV
Sequence of Dopamine D2 receptor/Serotonin 2 (5-HT2) receptor (Rattus norvegicus) (P30994 whole entry, looked up): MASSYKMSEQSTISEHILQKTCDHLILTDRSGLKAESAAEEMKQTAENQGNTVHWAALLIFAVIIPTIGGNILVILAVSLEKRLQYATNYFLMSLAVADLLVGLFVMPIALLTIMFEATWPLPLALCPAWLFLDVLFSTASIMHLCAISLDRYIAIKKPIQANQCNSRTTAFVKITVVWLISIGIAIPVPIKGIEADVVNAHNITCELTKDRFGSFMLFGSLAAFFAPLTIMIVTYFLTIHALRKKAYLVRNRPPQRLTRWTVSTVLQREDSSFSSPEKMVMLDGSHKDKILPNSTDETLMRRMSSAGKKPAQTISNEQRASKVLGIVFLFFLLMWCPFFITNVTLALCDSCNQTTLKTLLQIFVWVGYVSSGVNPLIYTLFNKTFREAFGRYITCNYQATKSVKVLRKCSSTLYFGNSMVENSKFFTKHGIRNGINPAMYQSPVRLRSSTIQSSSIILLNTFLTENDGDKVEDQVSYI
Sequence of Dopamine D2 receptor/Serotonin 2 (5-HT2) receptor (Rattus norvegicus) (P61169 whole entry, looked up): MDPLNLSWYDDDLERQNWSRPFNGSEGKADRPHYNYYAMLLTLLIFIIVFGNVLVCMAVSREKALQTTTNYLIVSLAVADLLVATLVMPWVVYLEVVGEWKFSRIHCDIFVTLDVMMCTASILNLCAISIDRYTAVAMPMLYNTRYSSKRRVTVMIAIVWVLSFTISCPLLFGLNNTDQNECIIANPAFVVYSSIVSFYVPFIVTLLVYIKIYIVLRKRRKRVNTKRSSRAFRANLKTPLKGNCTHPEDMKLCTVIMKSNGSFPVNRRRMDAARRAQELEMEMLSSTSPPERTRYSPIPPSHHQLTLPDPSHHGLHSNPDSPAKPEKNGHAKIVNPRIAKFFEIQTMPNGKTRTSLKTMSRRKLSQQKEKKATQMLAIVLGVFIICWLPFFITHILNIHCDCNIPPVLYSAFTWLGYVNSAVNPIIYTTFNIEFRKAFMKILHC

T1 sequence (P61169 whole entry): as the sequence (P61169 whole entry, looked up) above

SMILES | Ki [1] [nM] | Ki [2] [nM] | Ki [3] [nM] | Ratio [4]
CCN1CN(c2ccccc2)C2(CCN(CCCC(=O)c3ccc(F)cc3)CC2)C1=O | 0.31 | 0.057 |  | 
O=C(CCCN1CCC2(CC1)C(=O)N(CCc1ccccc1)CN2c1ccccc1)c1ccc(F)cc1 | 1 |  | 0.035 | 29
O=C(CCCN1CCC2(CC1)C(=O)N(Cc1cccc(F)c1)CN2c1ccccc1)c1ccc(F)cc1 | 5.3 |  | 0.023 | 230
O=C(CCCN1CCC2(CC1)C(=O)N(Cc1ccc([N+](=O)[O-])cc1)CN2c1ccccc1)c1ccc(F)cc1 | 14 | 0.119 |  | 
Cc1ccc(CN2CN(c3ccccc3)C3(CCN(CCCC(=O)c4ccc(F)cc4)CC3)C2=O)cc1 | 37 | 0.067 |  | 
CCCN1CN(c2ccccc2)C2(CCN(CCCC(=O)c3ccc(F)cc3)CC2)C1=O | 0.096 |  | 0.029 | 3.3
CCCCN1CN(c2ccccc2)C2(CCN(CCCC(=O)c3ccc(F)cc3)CC2)C1=O | 0.41 |  | 0.036 | 11
CC(C)CN1CN(c2ccccc2)C2(CCN(CCCC(=O)c3ccc(F)cc3)CC2)C1=O | 0.13 |  | 0.039 | 3.3
COc1ccccc1CN1CN(c2ccccc2)C2(CCN(CCCC(=O)c3ccc(F)cc3)CC2)C1=O | 1.9 | 0.047 |  | 
CC(C)CCN1CN(c2ccccc2)C2(CCN(CCCC(=O)c3ccc(F)cc3)CC2)C1=O | 1.3 |  | 0.063 | 21
O=C(CCCN1CCC2(CC1)C(=O)N(Cc1ccccc1F)CN2c1ccccc1)c1ccc(F)cc1 | 4.4 |  | 0.043 | 100
O=C(CCCN1CCC2(CC1)C(=O)N(Cc1ccccc1)CN2c1ccccc1)c1ccc(F)cc1 | 3.2 |  | 0.023 | 140
Cc1ccccc1CN1CN(c2ccccc2)C2(CCN(CCCC(=O)c3ccc(F)cc3)CC2)C1=O | 9.6 |  | 0.033 | 290
O=C(CCCN1CCC2(CC1)C(=O)N(Cc1ccc(I)cc1)CN2c1ccccc1)c1ccc(F)cc1 | 89 | 0.213 |  | 
O=C(CCCN1CCC2(CC1)C(=O)N(Cc1ccccc1[N+](=O)[O-])CN2c1ccccc1)c1ccc(F)cc1 | 0.68 | 0.12 |  | 
CN1CN(c2ccccc2)C2(CCN(CCCC(=O)c3ccc(F)cc3)CC2)C1=O [MESPIPERONE] | 0.55 | 0.118 |  | 
CCCCCN1CN(c2ccccc2)C2(CCN(CCCC(=O)c3ccc(F)cc3)CC2)C1=O | 1.1 |  | 0.062 | 18
O=C(CCCN1CCC2(CC1)C(=O)N(Cc1ccccc1I)CN2c1ccccc1)c1ccc(F)cc1 | 19 | 0.063 |  | 
O=C(CCCN1CCC2(CC1)C(=O)N(Cc1ccc(F)cc1)CN2c1ccccc1)c1ccc(F)cc1 | 21 |  | 0.069 | 300
COc1ccc(CN2CN(c3ccccc3)C3(CCN(CCCC(=O)c4ccc(F)cc4)CC3)C2=O)cc1 | 12 | 0.087 |  | 
